Data on 6 compounds can be found in article PMC9508125, “The evolutionary advantage of an aromatic clamp in plant family 3 glycoside exo-hydrolases” (Nature Communications, 2022).

Numbering of substitutions follows the chain as printed.

Assay in all cases: Relative rates of hydrolysis of poly-, oligosaccharides and aryl-glycosides
What all share (assay type): biochemical

Assay [1] addresses T1, HvExoI W434Y mutant (Hordeum vulgare, UniProt Q9XEI3, W459Y).
T1 sequence (Q9XEI3 26-630 W459Y): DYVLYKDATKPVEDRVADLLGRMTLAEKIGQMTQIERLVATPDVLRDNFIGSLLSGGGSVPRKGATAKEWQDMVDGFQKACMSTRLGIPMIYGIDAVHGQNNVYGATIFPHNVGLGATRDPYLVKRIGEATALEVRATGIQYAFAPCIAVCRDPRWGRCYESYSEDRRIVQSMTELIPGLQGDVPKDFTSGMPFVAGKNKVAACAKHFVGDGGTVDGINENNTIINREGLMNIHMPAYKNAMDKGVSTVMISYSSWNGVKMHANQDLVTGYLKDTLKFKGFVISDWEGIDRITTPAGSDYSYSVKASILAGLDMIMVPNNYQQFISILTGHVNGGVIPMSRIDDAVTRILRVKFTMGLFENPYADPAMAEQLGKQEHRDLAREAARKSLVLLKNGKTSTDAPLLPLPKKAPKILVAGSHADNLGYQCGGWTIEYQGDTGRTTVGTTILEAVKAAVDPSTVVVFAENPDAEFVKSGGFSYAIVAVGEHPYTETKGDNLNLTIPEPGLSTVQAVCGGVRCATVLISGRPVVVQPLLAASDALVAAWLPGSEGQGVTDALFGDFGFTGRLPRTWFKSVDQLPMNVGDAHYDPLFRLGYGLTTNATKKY
As to conditions: substance is the substrate, nd = activity not detected. Here is the method:
(§1) Dependency of activities of WT and mutant HvExoI on pH (McIlvaine buffers in the pH range of 3.5–8.5 at 30 °C) and temperature (100 mM sodium acetate buffer, pH 5.25, temperature range 0–80 °C, 15 min incubations) were determined using 0.2% (w/v) 4NP-Glc[21],[59]. Relative rates of hydrolysis of β-linked poly-, oligosaccharides, and aryl-glucosides were determined using near-homogenous HvExoI at 50 pmoles. […] Kinetic parameters were calculated from the analyses of Michaelis-Menten plots with Grafit 7.0.3[62] and processed by a proportional weighted fit, using nonlinear regression. The relative rates of hydrolysis, kinetic, and inhibition data were rounded to one or two decimal points (Supplementary Tables 2–4).

Assay [2] has as its target T2, HvExoI W434F mutant (Hordeum vulgare, UniProt Q9XEI3, W459F).
T2 sequence (Q9XEI3 26-630 W459F): T1 sequence (Q9XEI3 26-630 W459Y) with Y434F
As to conditions: substance is the substrate, nd = activity not detected. The procedure:
as §1

Assay [3] has as its target T3, HvExoI W286F mutant (Hordeum vulgare, UniProt Q9XEI3, W311F).
T3 sequence (Q9XEI3 26-630 W311F): T1 sequence (Q9XEI3 26-630 W459Y) with W286F, Y434W
As to conditions: substance is the substrate, nd = activity not detected. The procedure:
as §1

Assay [4] has as its target T4, HvExoI W286Y mutant (Hordeum vulgare, UniProt Q9XEI3, W311Y).
T4 sequence (Q9XEI3 26-630 W311Y): T1 sequence (Q9XEI3 26-630 W459Y) with W286Y, Y434W
To be noted: substance is the substrate, nd = activity not detected. Here is the method: as §1

For assay [5], the target named is WT HvExoI (Hordeum vulgare, UniProt Q9XEI3). To be noted: substance is the substrate, HvExoI at 50 pmoles, nd = activity not detected. Here is the method:
as §1

Chain of WT HvExoI (Q9XEI3 entry or part of it): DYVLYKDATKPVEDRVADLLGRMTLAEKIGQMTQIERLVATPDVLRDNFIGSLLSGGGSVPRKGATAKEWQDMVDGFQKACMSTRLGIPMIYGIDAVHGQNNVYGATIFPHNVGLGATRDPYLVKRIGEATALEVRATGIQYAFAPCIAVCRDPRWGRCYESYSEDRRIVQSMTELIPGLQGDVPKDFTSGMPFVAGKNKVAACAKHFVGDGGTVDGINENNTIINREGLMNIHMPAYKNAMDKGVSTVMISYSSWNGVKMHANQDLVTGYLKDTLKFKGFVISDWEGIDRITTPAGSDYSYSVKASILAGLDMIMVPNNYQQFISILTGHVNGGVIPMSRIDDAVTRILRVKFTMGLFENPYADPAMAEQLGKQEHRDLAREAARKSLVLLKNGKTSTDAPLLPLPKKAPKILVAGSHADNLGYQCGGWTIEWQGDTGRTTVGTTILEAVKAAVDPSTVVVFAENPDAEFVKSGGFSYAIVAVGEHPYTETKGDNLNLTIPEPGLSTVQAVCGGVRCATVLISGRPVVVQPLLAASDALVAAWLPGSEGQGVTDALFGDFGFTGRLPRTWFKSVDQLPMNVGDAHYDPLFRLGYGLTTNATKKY

Take `OC[C@H]1O[C@@H](O[C@@H]2[C@@H](O)[C@H](O[C@@H]3[C@@H](O)[C@H](O[C@@H]4[C@@H](O)[C@H](O[C@@H]5[C@@H](O)[C@H](O)O[C@H](CO)[C@H]5O)O[C@H](CO)[C@H]4O)O[C@H](CO)[C@H]3O)O[C@H](CO)[C@H]2O)[C@H](O)[C@@H](O)[C@@H]1O` [Laminaripentaose]: the “Activity (relative rate of hydrolysis)” value amounted to 1.5 ± 0.1 μmole/min per mg protein in assay [1]; 14.6 ± 0.4 μmole/min per mg protein in assay [2]; 1.0 ± 0.01 μmole/min per mg protein in assay [3]; 14.8 ± 0.4 μmole/min per mg protein in assay [4]; 11.7 ± 0.5 μmole/min per mg protein in assay [5].
On to Cellobiose, for which the “Activity (relative rate of hydrolysis)” value in assay [1] stood at 0.1 ± 0.001 μmole/min per mg protein; in assay [2] it was 0.4 ± 0.1 μmole/min per mg protein; in assay [3], 0.1 ± 0.01 μmole/min per mg protein; in assay [4], 3.2 ± 0.1 μmole/min per mg protein; in assay [5], 4.6 ± 0.2 μmole/min per mg protein.
Turning to `OC[C@H]1O[C@@H](O[C@@H]2[C@@H](O)[C@H](O[C@H]3[C@H](O)[C@@H](CO)OC(O)[C@@H]3O)O[C@H](CO)[C@H]2O)[C@H](O)[C@@H](O)[C@@H]1O` (stereo partly drawn) [Laminaritriose], the “Activity (relative rate of hydrolysis)” value in assay [1] stood at 1.4 ± 0.2 μmole/min per mg protein; in assay [2] it was 18.4 ± 1.4 μmole/min per mg protein; in assay [3], 1.3 ± 0.01 μmole/min per mg protein; in assay [4], 14.1 ± 0.4 μmole/min per mg protein; in assay [5] it was 12.4 ± 0.3 μmole/min per mg protein.
As to `OC[C@H]1O[C@@H](O[C@H]2[C@H](O)[C@@H](O)[C@H](O[C@H]3[C@H](O)[C@@H](O)[C@H](O[C@H]4[C@H](O)[C@@H](O)C(O)O[C@@H]4CO)O[C@@H]3CO)O[C@@H]2CO)[C@H](O)[C@@H](O)[C@@H]1O` (stereo partly drawn) [Cellotetraose], the “Activity (relative rate of hydrolysis)” value was 0.1 ± 0.01 μmole/min per mg protein in assay [1]; 1.9 ± 0.1 μmole/min per mg protein in assay [2]; 0.1 ± 0.01 μmole/min per mg protein in assay [3]; 6.3 ± 1.1 μmole/min per mg protein in assay [4]; 8.5 ± 0.7 μmole/min per mg protein in assay [5].
Consider `OC[C@H]1O[C@@H](O[C@@H]2[C@@H](O)[C@H](O[C@@H]3[C@@H](O)[C@H](O[C@@H]4[C@@H](O)[C@H](O[C@@H]5[C@@H](O)[C@H](O[C@@H]6[C@@H](O)[C@H](O[C@@H]7[C@@H](O)[C@H](O)O[C@H](CO)[C@H]7O)O[C@H](CO)[C@H]6O)O[C@H](CO)[C@H]5O)O[C@H](CO)[C@H]4O)O[C@H](CO)[C@H]3O)O[C@H](CO)[C@H]2O)[C@H](O)[C@@H](O)[C@@H]1O` [Laminariheptaose], for which the “Activity (relative rate of hydrolysis)” value in assay [1] was 1.3 ± 0.1 μmole/min per mg protein; in assay [2], 13.5 ± 0.4 μmole/min per mg protein; in assay [3], 1.2 ± 0.1 μmole/min per mg protein; in assay [4] it was 14.5 ± 2.0 μmole/min per mg protein; in assay [5] it was 11.0 ± 0.8 μmole/min per mg protein.
In the case of `OC[C@H]1O[C@@H](O[C@H]2[C@H](O)[C@@H](O)[C@H](O[C@H]3[C@H](O)[C@@H](O)[C@H](O[C@H]4[C@H](O)[C@@H](O)[C@H](O[C@H]5[C@H](O)[C@@H](O)[C@H](O[C@H]6[C@H](O)[C@@H](O)C(O)O[C@@H]6CO)O[C@@H]5CO)O[C@@H]4CO)O[C@@H]3CO)O[C@@H]2CO)[C@H](O)[C@@H](O)[C@@H]1O` (stereo partly drawn) [Cellohexaose], the “Activity (relative rate of hydrolysis)” value in assay [1] was 0.1 ± 0.01 μmole/min per mg protein; in assay [2], 1.9 ± 0.1 μmole/min per mg protein; in assay [3], 0.1 ± 0.01 μmole/min per mg protein; in assay [4], 7.0 ± 0.1 μmole/min per mg protein; in assay [5], 9.1 ± 0.2 μmole/min per mg protein.
